Laboratory results: patent US10865216B2, “Tricyclic Gyrase inhibitors” (MERCK SHARP & DOHME CORP., priority 2012, dated 2020)
Values after ≈ are worked out from the molar mass of the structure shown.

Tests used:
E. coli ATCC 25922 = assay: MIC, E. coli ATCC 25922; format: cell-based; details: Alamar Blue read after overnight incubation at 35° C.; for MIC: Escherichia coli, ATCC25922, E. coli, read-out: MIC Ec; for MIC Ec: E. coli
S. aureus ATCC 13709 = assay: MIC, S. aureus ATCC 13709; format: cell-based; details: Alamar Blue read after overnight incubation at 35° C.; for MIC: Staphylococcus aureus, ATCC13709, S. aureus, read-out: MIC Sa; for MIC Sa: S. aureus

Structure (SMILES) | MIC (E. coli ATCC 25922) [µg/mL] | MIC (S. aureus ATCC 13709) [µg/mL] | MIC Ec (E. coli ATCC 25922) [µg/mL] | MIC Sa (S. aureus ATCC 13709) [µg/mL]
CNc1cccc2c1[nH]c1nc(Sc3cnc4nccnc4c3)nc(N3CC[C@H](N)C3)c12 [Compound 1.15] | 2 (≈ 4.51 µM) | 1 (≈ 2.25 µM) |  | 
CNc1cccc2c1[nH]c1nc(Sc3cnc4ccc[n+]([O-])c4c3)nc(N3C[C@@H]4[C@H](C3)[C@@]4(N)C(N)=O)c12 [Compound 1.19] |  |  | >64 | >64
CNc1cccc2c1[nH]c1nc(Sc3cnc4ccc[n+]([O-])c4c3)nc(N3CC(CN)C3)c12 [Compound 1.20] | 16 (≈ 34.9 µM) | 4 (≈ 8.72 µM) |  | 
CNc1cccc2c1[nH]c1nc(Sc3cncc(S(=O)(=O)N(C)C)c3)nc(N3CC4C(N)C4C3)c12 (centres unmarked) [Compound 1.22] | 8 (≈ 15.7 µM) | 1 (≈ 1.96 µM) |  | 
CNc1cccc2c1[nH]c1nc(Sc3cnc4ccc[n+]([O-])c4c3)nc(N3CC4C(N)C4C3)c12 (centres unmarked) [Compound 1.23] |  |  | ≤0.5 | ≤0.5
CNc1cccc2c1[nH]c1nc(Sc3cnc4cccnc4c3)nc(N3CC4C(N)C4C3)c12 (centres unmarked) [Compound 1.24] |  |  | 1 (≈ 2.2 µM) | ≤0.5
CNc1cccc2c1[nH]c1nc(Sc3cnc4cccnc4c3)nc(N3CCC4(CC4N)C3)c12 (centres unmarked) [Compound 1.26] |  |  | 1 (≈ 2.13 µM) | ≤0.5
CNc1cccc2c1[nH]c1nc(Sc3cnc4cccnc4c3)nc(N3CC4CCCNC4C3)c12 (centres unmarked) [Compound 1.28] | 16 (≈ 33.2 µM) | 4 (≈ 8.29 µM) |  | 
CNc1cccc2c1[nH]c1nc(Sc3cnc4cccnc4c3)nc(N3CC(N)C3)c12 [Compound 1.29] | > 64 | 1 (≈ 2.33 µM) |  | 
CNc1cccc2c1[nH]c1nc(Sc3cnc4cccnc4c3)nc(N3CC4C(C3)C4(N)CO)c12 (centres unmarked) [Compound 1.30] | > 64 | 16 (≈ 33 µM) |  | 
CNc1cccc2c1[nH]c1nc(Sc3cnc4ccc[n+]([O-])c4c3)nc(N3CCC[C@@H](N)C3)c12 [Compound 1.34] | 4 (≈ 8.46 µM) | 1 (≈ 2.12 µM) |  | 
CNc1cccc2c1[nH]c1nc(Sc3cncc(S(=O)(=O)NC)c3)nc(N3CC4C(N)C4C3)c12 (centres unmarked) [Compound 1.36] | 4 (≈ 8.05 µM) | 2 (≈ 4.03 µM) |  | 
CNc1cccc2c1[nH]c1nc(Sc3cnc4cccnc4c3)nc(N3CCC[C@@H](N)C3)c12 [Compound 1.37] | 4 (≈ 8.76 µM) | 1 (≈ 2.19 µM) |  | 
CNc1cccc2c1[nH]c1nc(Sc3cnc4ccc[n+]([O-])c4c3)nc(N3CCC4(CC4N)C3)c12 (centres unmarked) [Compound 1.39] |  |  | 1 (≈ 2.06 µM) | ≤0.5
CNc1cccc2c1[nH]c1nc(Sc3cncc(S(N)(=O)=O)c3)nc(N3CC4C(N)C4C3)c12 (centres unmarked) [Compound 1.41] | 8 (≈ 16.6 µM) | 4 (≈ 8.29 µM) |  | 
CNc1cccc2c1[nH]c1nc(Sc3cncc(S(=O)(=O)NCCO)c3)nc(N3CC4C(N)C4C3)c12 (centres unmarked) [Compound 1.42] | 32 (≈ 60.8 µM) | 8 (≈ 15.2 µM) |  | 
CNc1cccc2c1[nH]c1nc(Sc3cncnc3)nc(N3CC4C(N)C4C3)c12 (centres unmarked) [Compound 1.43] | 8 (≈ 19.8 µM) | 2 (≈ 4.94 µM) |  | 
CNc1cccc2c1[nH]c1nc(Sc3cncnc3)nc(N3CC(N)C4(CC4)C3)c12 (centres unmarked) [Compound 1.44] | 2 (≈ 4.78 µM) | 1 (≈ 2.39 µM) |  | 
CNc1cccc2c1[nH]c1nc(Sc3cnc4cccnc4c3)nc(N3CCCCC(N)C3)c12 (centres unmarked) [Compound 1.45] | 4 (≈ 8.5 µM) | 1 (≈ 2.12 µM) |  | 

Structure (SMILES) | MIC (E. coli ATCC 25922) [µg/mL] | MIC (S. aureus ATCC 13709) [µg/mL] | MIC Ec (E. coli ATCC 25922) [µg/mL] | MIC Sa (S. aureus ATCC 13709) [µg/mL]
CNc1cccc2c1[nH]c1nc(Sc3cnc4cccnc4c3)nc(N3CCNCC3)c12 [Compound 1.46] | 4 (≈ 9.04 µM) | 2 (≈ 4.52 µM) |  | 
CNc1cccc2c1[nH]c1nc(Sc3cnc4ccc[n+]([O-])c4c3)nc(N3CC4C(N)C4C3)c12 (centres unmarked) [Compound 1.49] |  |  | ≤0.5 | ≤0.5
CNc1cccc2c1[nH]c1nc(Sc3cnc4ccc[n+]([O-])c4c3)nc(N3CC4C(C3)C4NC(=O)[C@H](C)N)c12 (some centres unmarked) [Compound 1.52] | 16 (≈ 29.5 µM) | 1 (≈ 1.85 µM) |  | 
CNc1cccc2c1[nH]c1nc(Sc3cnc4cccnc4c3)nc(N3CC4CNCC4C3)c12 (centres unmarked) [Compound 1.55] | 8 (≈ 17.1 µM) | 1 (≈ 2.13 µM) |  | 
CNc1cccc2c1[nH]c1nc(Sc3cnc4cccnc4c3)nc(N3CCC4(CCNCC4)C3)c12 [Compound 1.56] | 32 (≈ 64.4 µM) | 4 (≈ 8.05 µM) |  | 
CNc1cccc2c1[nH]c1nc(Sc3cnc4ccc[n+]([O-])c4c3)nc(N3CC4CC3CN4)c12 (centres unmarked) [Compound 1.57] | > 32 | > 32 |  | 
CNc1cccc2c1[nH]c1nc(Sc3cnc4cccnc4c3)nc(N3CCC(C)(N)C3)c12 (centres unmarked) [Compound 1.59] | 4 (≈ 8.76 µM) | 1 (≈ 2.19 µM) |  | 
CNc1cccc2c1[nH]c1nc(Sc3cnc4cccnc4c3)nc(N3C[C@@H](N)C[C@H]3C)c12 [Compound 1.60] | 2 (≈ 4.38 µM) | 0.5 (≈ 1.1 µM) |  | 
CNc1cccc2c1[nH]c1nc(Sc3cnc4cccnc4c3)nc(N3C[C@H](N)C[C@H]3C)c12 [Compound 1.61] | 64 (≈ 140 µM) | 8 (≈ 17.5 µM) |  | 
CNc1cc(F)cc2c1[nH]c1nc(Sc3cnc4ccc[n+]([O-])c4c3)nc(N3CCC4(CC4N)C3)c12 (centres unmarked) [Compound 1.64] | ≤ 0.5 | ≤ 0.5 |  | 
CNc1cc(F)cc2c1[nH]c1nc(Sc3cnc4ccc[n+]([O-])c4c3)nc(N3CCC4(CC4N)C3)c12 (centres unmarked) [Compound 1.65] |  |  | ≤0.5 | ≤0.5
CNc1cccc2c1[nH]c1nc(Sc3cnc4ccc[n+]([O-])c4c3)nc(N3CC4C(N)C4C3)c12 (centres unmarked) [Compound 1.66] |  |  | ≤0.5 | ≤0.13
CNc1cccc2c1[nH]c1nc(Sc3cnc4cccnc4c3)nc(N3CCN(C(C)=O)CC3)c12 [Compound 1.67] | > 64 | ≤ 0.5 |  | 
CNc1cccc2c1[nH]c1nc(Sc3cnc4cccnc4c3)nc(N3C[C@H](N)C[C@@H]3CO)c12 [Compound 1.68] | 32 (≈ 67.7 µM) | 16 (≈ 33.9 µM) |  | 
CNc1cccc2c1[nH]c1nc(Sc3cnc4cccnc4c3)nc(N3CCN(C(=O)C4CCCO4)CC3)c12 (centres unmarked) [Compound 1.69] | 8 (≈ 14.8 µM) | ≤ 0.5 |  | 
CNc1cccc2c1[nH]c1nc(Sc3cnc4cccnc4c3)nc(N3CCC(C(O)c4cccs4)CC3)c12 (centres unmarked) [Compound 1.70] | > 32 | 1 (≈ 1.81 µM) |  | 
CNc1cccc2c1[nH]c1nc(Sc3cnc4ccc[n+]([O-])c4c3)nc(N3CC4C(N)C4C3)c12 (centres unmarked) [Compound 1.71] |  |  | ≤0.5 | ≤0.5
CNc1ccc(C)c2c1[nH]c1nc(Sc3cnc4ccc[n+]([O-])c4c3)nc(N3CC(N)C4(CC4)C3)c12 (centres unmarked) [Compound 1.72] | 1 (≈ 2.01 µM) | ≤ 0.5 |  | 

The next lines start with the values.

MIC (E. coli ATCC 25922) [µg/mL] | MIC (S. aureus ATCC 13709) [µg/mL] | MIC Ec (E. coli ATCC 25922) [µg/mL] | MIC Sa (S. aureus ATCC 13709) [µg/mL] | Structure (SMILES)
1 (≈ 2.2 µM) | ≤ 0.5 |  |  | CNc1cccc2c1[nH]c1nc(Sc3cnc4nccnc4c3)nc(N3CC4C(N)C4C3)c12 (centres unmarked) [Compound 1.16]
> 64 | ≤ 0.5 |  |  | CNc1cccc2c1[nH]c1nc(Sc3cnc4ccc[n+]([O-])c4c3)nc(N3CC(O)C3)c12 [Compound 1.17]
2 (≈ 4.13 µM) | ≤ 0.5 |  |  | CNc1cccc2c1[nH]c1nc(Sc3cnc4ccc[n+]([O-])c4c3)nc(N3C[C@@H]4[C@@H](CN)[C@@H]4C3)c12 [Compound 1.18]
> 64 | ≤ 0.5 |  |  | CNc1cccc2c1[nH]c1nc(Sc3cnc4ccc[n+]([O-])c4c3)nc(N3CC(CNC(=O)c4cn(C)nc4C(F)(F)F)C3)c12 [Compound 1.21]
 | ≤ 0.5 | 4 (≈ 8.54 µM) |  | CNc1cccc2c1[nH]c1nc(Sc3cnc4cccnc4c3)nc(N3CCC4(CC4N)C3)c12 (centres unmarked) [Compound 1.25]
1 (≈ 2.13 µM) | ≤ 0.5 |  |  | CNc1cccc2c1[nH]c1nc(Sc3cnc4cccnc4c3)nc(N3CC(N)C4(CC4)C3)c12 (centres unmarked) [Compound 1.27]
≤ 0.5 | ≤ 0.5 |  |  | CNc1cccc2c1[nH]c1nc(Sc3cc4ncccc4[n+]([O-])c3)nc(N3C[C@@H]4[C@@H](N)[C@@H]4C3)c12 [Compound 1.31]
4 (≈ 8.5 µM) | ≤ 0.5 |  |  | CNc1cccc2c1[nH]c1nc(Sc3cnc4ccc[n+]([O-])c4c3)nc(N3CC4CNC4C3)c12 (centres unmarked) [Compound 1.32]
4 (≈ 8.25 µM) | ≤ 0.5 |  |  | CNc1cccc2c1[nH]c1nc(Sc3cnc4ccc[n+]([O-])c4c3)nc(N3CC(C4(N)CC4)C3)c12 [Compound 1.33]
2 (≈ 4.11 µM) | ≤ 0.5 |  |  | CNc1cccc2c1[nH]c1nc(Sc3cnc4ccc[n+]([O-])c4c3)nc(N3CC[C@@H](C)[C@@H](N)C3)c12 [Compound 1.35]
2 (≈ 4.13 µM) | ≤ 0.5 |  |  | CNc1cccc2c1[nH]c1nc(Sc3cnc4ccc[n+]([O-])c4c3)nc(N3CCC4(CC4N)C3)c12 (centres unmarked) [Compound 1.38]
1 (≈ 2.06 µM) | ≤ 0.5 |  |  | CNc1cccc2c1[nH]c1nc(Sc3cnc4ccc[n+]([O-])c4c3)nc(N3CC(N)C4(CC4)C3)c12 (centres unmarked) [Compound 1.40]
2 (≈ 4.27 µM) | ≤ 0.5 |  |  | CNc1cccc2c1[nH]c1nc(Sc3cnc4cccnc4c3)nc(N3CC4CNC(C4)C3)c12 (centres unmarked) [Compound 1.47]
2 (≈ 4.38 µM) | ≤ 0.5 |  |  | CNc1cccc2c1[nH]c1nc(Sc3cnc4cccnc4c3)nc(N3CCC(CN)C3)c12 (centres unmarked) [Compound 1.48]
≤ 0.5 | ≤ 0.5 |  |  | CNc1cc(F)cc2c1[nH]c1nc(Sc3cnc4ccc[n+]([O-])c4c3)nc(N3CC4C(N)C4C3)c12 (centres unmarked) [Compound 1.50]
≤ 0.5 | ≤ 0.5 |  |  | CNc1cc(F)cc2c1[nH]c1nc(Sc3cnc4cccnc4c3)nc(N3CC4C(N)C4C3)c12 (centres unmarked) [Compound 1.51]
8 (≈ 17.5 µM) | ≤ 0.5 |  |  | CNc1cccc2c1[nH]c1nc(Sc3cnc4cccnc4c3)nc(N3CCC(CO)C3)c12 (centres unmarked) [Compound 1.53]
> 64 | ≤ 0.5 |  |  | CNc1cccc2c1[nH]c1nc(Sc3cnc4cccnc4c3)nc(N3CCN(c4cnccn4)CC3)c12 [Compound 1.54]
8 (≈ 17.1 µM) | ≤ 0.5 |  |  | CNc1ccc(C)c2c1[nH]c1nc(Sc3cnc4cccnc4c3)nc(N3CC4C(N)C4C3)c12 (centres unmarked) [Compound 1.58]
≤ 0.5 | ≤ 0.5 |  |  | CNc1cc(F)cc2c1[nH]c1nc(Sc3cnc4cccnc4c3)nc(N3CC(N)C4(CC4)C3)c12 (centres unmarked) [Compound 1.62]
≤ 0.5 | ≤ 0.5 |  |  | CNc1cc(F)cc2c1[nH]c1nc(Sc3cnc4ccc[n+]([O-])c4c3)nc(N3CC(N)C4(CC4)C3)c12 (centres unmarked) [Compound 1.63]
